Data taken from patent US9029373B2, “Kinase inhibitors” (Chiesi Farmaceutici S.p.A., priority 2011, dated 2015).
Where a name gives a salt, the structure may show the parent alone.

What was measured:
[1] = target: T1, p38alpha (Homo sapiens, UniProt Q16539); assay: P38alpha enzyme inhibition assay (Alphascreen kinase activity assay); type: biochemical; conditions: 100 pM p38alpha, 250 μM ATP, 2 hours pre-incubation at 25° C., ATF-2 fusion protein substrate; read-out: p38α inhibition (IC50 values)
T1 construct: purchased Invitrogen PV3304
T1 sequence (Q16539 whole entry, the tested form may be a part): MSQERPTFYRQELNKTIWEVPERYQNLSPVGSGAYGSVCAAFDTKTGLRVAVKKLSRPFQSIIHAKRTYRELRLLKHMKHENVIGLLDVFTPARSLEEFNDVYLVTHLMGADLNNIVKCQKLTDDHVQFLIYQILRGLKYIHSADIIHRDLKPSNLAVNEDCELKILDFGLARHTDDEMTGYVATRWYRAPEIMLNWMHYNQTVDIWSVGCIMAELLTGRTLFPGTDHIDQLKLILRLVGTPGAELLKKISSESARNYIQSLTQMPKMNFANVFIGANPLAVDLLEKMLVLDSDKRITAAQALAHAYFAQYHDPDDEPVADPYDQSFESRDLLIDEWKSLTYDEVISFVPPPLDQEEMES
Procedure: P38alpha Enzyme Inhibition Assay.
The inhibitory activity of compounds was determined using an Alphascreen® (Perkin Elmer) based kinase activity assay. Kinase reactions consisted of 25 mM HEPES pH 7.5, 10 mM MgCl2, 100 μM Na3VO4, 2 mM DTT, 0.05 mg/ml Tween 20, 100 pM p38alpha (Invitrogen, PV3304), 1% DMSO and 0.3 μg/ml ATF-2 fusion protein (New England Biolabs, 9224). Compounds were incubated under these conditions for 2 hours, at 25° C., prior to the initiation of the kinase activity by the addition of the 250 μM ATP. Reaction volumes were 20 uL. After 1 hr at 25° C. reactions were stopped by the adding 10 uL of 25 mM HEPES pH 7.5 containing 62.5 mM EDTA, 0.05% Triton X-100, 10% BSA and 0.83 ng/uL anti-phospho-ATF2 antibody (Abeam, ab28812). Detection was performed by measuring luminescence following the addition of Alphascreen Donor beads (Perkin Elmer 6765300) and Protein A Alphascreen Acceptor beads (Perkin Elmer 6760137), both at a final concentration of 20 ug/ml. IC50 values were determined from concentration-response curves.

[2] = tested on: LPS-stimulated PBMC TNFα release; assay: LPS-stimulated PBMC TNFα release assay; type: cell-based; conditions: human PBMCs, LPS 10 ng/ml, 18 h, TNFα by ELISA, at least three separate experiments, read-out: p38α inhibition (IC50 values), inhibition of TNFα release
Procedure: LPS-Stimulated PBMC TNFα Release Assay.
Peripheral Blood Mononuclear Cells (PBMCs) were isolated from healthy human volunteer blood using a standard density gradient centrifugation technique. Citrated blood was placed onto Histopaque™ and centrifuged. The PBMCs were removed from the density gradient interface and washed in phosphate buffered saline (PBS). The PBMCs were suspended in RPMI 1640 medium (without serum), dispensed into a 96-well plate and incubated at 37° C. for 3 h in a humidified incubator. After incubation, the medium was replaced (with medium containing 1% foetal bovine serum), and the plate incubated at 37° C., for 1 h, in the presence of test compound or the appropriate vehicle. LPS (10 ng/ml), or an appropriate vehicle control, was then added to the cells, and the plate returned to the incubator for 18 h. Cell-free supernatants were removed and assayed for TNFα levels using an ELISA kit from R&D Systems.
A dose response curve to each test compound was performed and the effect of compound in each experiment was expressed as a percentage inhibition of the control TNFα release. Dose response curves were plotted and compound potency (IC50) was determined. Compounds were tested in at least three separate experiments.

SMILES	IC50 [1] [nM]	IC50 [2] [nM]
CC(C)c1nnc2ccc(O[C@H]3CC[C@H](NC(=O)Nc4nnc(C(C)(C)C)o4)c4ccccc43)cn12 [Example 5, 1-(5-tert-Butyl-[1,3,4]oxadiazol-2-yl)-3-[(1S,4S)-4-(3-isopropyl-[1,2,4]triazolo[4,3-a]pyridin-6-yloxy)-1,2,3,4-tetrahydro-naphthalen-1-yl]-urea]	< 10	10 to 100
Cc1ccc(-n2cc(NC(=O)N[C@H]3CC[C@H](Oc4ccc5nnc(C(C)C)n5c4)c4ccccc43)cn2)cc1 [Example 6, 1-[(1S,4S)-4-(3-Isopropyl-[1,2,4]triazolo[4,3-a]pyridin-6-yloxy)-1,2,3,4-tetrahydro-naphthalen-1-yl]-3-(1-p-tolyl-1H-pyrazol-4-yl)-urea]	100 to 500	–
CC(C)c1nnc2ccc(O[C@H]3CC[C@H](NC(=O)Nc4ccc(Cl)c(C(F)(F)F)c4)c4ccccc43)cn12 [Example 7, 1-(4-Chloro-3-trifluoromethyl-phenyl)-3-[(1S,4S)-4-(3-isopropyl-[1,2,4]triazolo[4,3-a]pyridin-6-yloxy)-1,2,3,4-tetrahydro-naphthalen-1-yl]-urea]	< 10	< 10
CC(C)c1nnc2ccc(O[C@H]3CC[C@H](NC(=O)Nc4nc(C(C)(C)C)no4)c4ccccc43)cn12 [Example 8, 1-(3-tert-Butyl-[1,2,4]oxadiazol-5-yl)-3-[(1S,4S)-4-(3-isopropyl-[1,2,4]triazolo[4,3-a]pyridin-6-yloxy)-1,2,3,4-tetrahydro-naphthalen-1-yl]-urea]	< 10	< 10
CC(C)c1nnc2ccc(O[C@H]3CC[C@H](NC(=O)Nc4cnn(C(C)(C)C)c4)c4ccccc43)cn12 [Example 9, 1-(1-tert-Butyl-1H-pyrazol-4-yl)-3-[(1S,4S)-4-(3-isopropyl-[1,2,4]triazolo[4,3-a]pyridin-6-yloxy)-1,2,3,4-tetrahydro-naphthalen-1-yl]-urea]	< 10	< 10
CC(C)c1nnc2ccc(O[C@@H]3CC[C@H](NC(=O)Nc4cc(C(C)(C)C)nn4CCO)c4ccccc43)cn12 [Example 10, 1-[5-tert-Butyl-2-(2-hydroxy-ethyl)-2H-pyrazol-3-yl]-3-[(1S,4R)-4-(3-isopropyl-[1,2,4]triazolo[4,3-a]pyridin-6-yloxy)-1,2,3,4-tetrahydro-naphthalen-1-yl]-urea]	–	10 to 100
CC(C)c1nnc2ccc(O[C@@H]3CC[C@H](NC(=O)Nc4cc(C(C)(C)C)nn4-c4ccc(OCCN5CCN(C)CC5)cc4)c4ccccc43)cn12 [Example 13, 1-(5-tert-Butyl-2-{4-[2-(4-methyl-piperazin-1-yl)-ethoxy]-phenyl}-2H-pyrazol-3-yl)-3-[(1S,4R)-4-(3-isopropyl-[1,2,4]triazolo[4,3-a]pyridin-6-yloxy)-1,2,3,4-tetrahydro-naphthalen-1-yl]-urea, formic acid salt]	–	100 to 1000
CC(C)c1nnc2ccc(O[C@@H]3CC[C@H](NC(=O)Nc4cc(C(C)(C)C)nn4C4CCNCC4)c4ccccc43)cn12 [Example 16, 1-(5-tert-Butyl-2-piperidin-4-yl-2H-pyrazol-3-yl)-3-[(1S,4R)-4-(3-isopropyl-[1,2,4]triazolo[4,3-a]pyridin-6-yloxy)-1,2,3,4-tetrahydro-naphthalen-1-yl]-urea]	< 10	–
Cc1ccc(-n2nccc2NC(=O)N[C@H]2CC[C@@H](Oc3ccc4nnc(C(C)C)n4c3)c3ccccc32)cc1 [Example 20, 1-[(1S,4R)-4-(3-Isopropyl-[1,2,4]triazolo[4,3-a]pyridin-6-yloxy)-1,2,3,4-tetrahydro-naphthalen-1-yl]-3-(2-p-tolyl-2H-pyrazol-3-yl)-urea]	100 to 500	–
CC(C)c1nnc2ccc(O[C@@H]3CC[C@H](NC(=O)Nc4cnn(C(C)(C)C)c4)c4cc(F)ccc43)cn12 [Example 21, 1-(1-tert-Butyl-1H-pyrazol-4-yl)-3-[(1S,4R)-7-fluoro-4-(3-isopropyl-[1,2,4]triazolo[4,3-a]pyridin-6-yloxy)-1,2,3,4-tetrahydro-naphthalen-1-yl]-urea]	< 10	–
CC(C)c1nnc2ccc(O[C@@H]3CC[C@H](NC(=O)Nc4cc(C(C)(C)C)nn4-c4ccc5cnn(CCN6CCOCC6)c5c4)c4ccccc43)cn12 [Example 24, 1-{5-tert-Butyl-2-[1-(2-morpholin-4-yl-ethyl)-1H-indazol-6-yl]-2H-pyrazol-3-yl}-3-[(1S,4R)-4-(3-isopropyl-[1,2,4]triazolo[4,3-a]pyridin-6-yloxy)-1,2,3,4-tetrahydro-naphthalen-1-yl]-urea]	< 10	–
CC(C)c1nnc2ccc(O[C@@H]3CC[C@H](NC(=O)Nc4cc(C(C)(C)C)nn4-c4ccc5cn(CCN6CCOCC6)nc5c4)c4ccccc43)cn12 [Example 25, 1-{5-tert-Butyl-2-[2-(2-morpholin-4-yl-ethyl)-2H-indazol-6-yl]-2H-pyrazol-3-yl}-3-[(1S,4R)-4-(3-isopropyl-[1,2,4]triazolo[4,3-a]pyridin-6-yloxy)-1,2,3,4-tetrahydro-naphthalen-1-yl]-urea]	< 10	–

More lines, main results first:

IC50 [1] [nM]	SMILES	IC50 [2] [nM]
< 10	COc1ccc(-n2nc(C(C)(C)C)cc2NC(=O)N[C@H]2CC[C@@H](Oc3ccc4nnc(C(C)C)n4c3)c3ccccc32)cc1 [Example 1, 1-(5-tert-Butyl-2-(4-methoxy-phenyl)-2H-pyrazol-3-yl)-3-[(1S,4R)-4-(3-isopropyl-[1,2,4]triazolo[4,3-a]pyridin-6-yloxy)-1,2,3,4-tetrahydro-naphthalen-1-yl]-urea]	< 10
< 10	CC(C)c1nnc2ccc(O[C@@H]3CC[C@H](NC(=O)Nc4cc(C(C)(C)C)nn4C)c4ccccc43)cn12 [Example 2, 1-(5-tert-Butyl-2-methyl-2H-pyrazol-3-yl)-3-[(1S,4R)-4-(3-isopropyl-[1,2,4]triazolo[4,3-a]pyridin-6-yloxy)-1,2,3,4-tetrahydro-naphthalen-1-yl]-urea]	< 10
< 10	CC(C)c1nnc2ccc(O[C@@H]3CC[C@H](NC(=O)Nc4cc(C(C)(C)C)nn4-c4cccc(SCCO)c4)c4ccccc43)cn12 [Example 3, 1-{5-tert-Butyl-2-[3-(2-hydroxyethylsulfanyl)-phenyl]-2H-pyrazol-3-yl}-3-[(1S,4R)-4-(3-isopropyl-[1,2,4]triazolo[4,3-a]pyridin-6-yloxy)-1,2,3,4-tetrahydro-naphthalen-1-yl]-urea]	< 10
< 10	CC(C)c1nnc2ccc(O[C@@H]3CC[C@H](NC(=O)Nc4cc(C(C)(C)C)nn4-c4cccc(OCCO)c4)c4ccccc43)cn12 [Example 4, 1-{5-tert-Butyl-2-[3-(2-hydroxy-ethoxy)-phenyl]-2H-pyrazol-3-yl}-3-[(1S,4R)-4-(3-isopropyl-[1,2,4]triazolo[4,3-a]pyridin-6-yloxy)-1,2,3,4-tetrahydro-naphthalen-1-yl]-urea]	< 10
< 10	CC(C)c1nnc2ccc(O[C@@H]3CC[C@H](NC(=O)Nc4cc(C(C)(C)C)nn4-c4ccc(CO)cc4)c4ccccc43)cn12 [Example 11, 1-[5-tert-Butyl-2-(4-hydroxymethyl-phenyl)-2H-pyrazol-3-yl]-3-[(1S,4R)-4-(3-isopropyl-[1,2,4]triazolo[4,3-a]pyridin-6-yloxy)-1,2,3,4-tetrahydro-naphthalen-1-yl]-urea]	< 10
